Assay results from patent US9034895B2, “Composition and methods for treating glioblastoma” (University of Washington Through its Center for …, priority 2010, dated 2015).

Assays:
[1] = target: T1, CB2 (Mus musculus, UniProt P47936); assay: Radioligand competition binding, [3H]-CP55940, CB2-expressing HEK293 membranes
T1 construct: plasmids containing full coding region of mouse CB1 and CB2; expressed in transfected cells
Description: Stable CB1 and CB2 expressing HEK293 cell lines were generated using plasmids containing full coding region of mouse CB1 and CB2.
Fragments were amplified from total RNA of cell lines by reverse transcriptase-polymerase chain reaction (RT-PCR). Sequence was confirmed and the fragment was cloned into the EcoRI site of the pIRES2-eGFP-express vector. Cells were grown to approximately 80% confluence in 10 cm cell culture dishes, transfected with the cDNA pIRES-eGFP-vector containing the murine CB1 or CB2 receptor using LipofectAMINE™ 2000 reagent in the serum-free media Opti-MEM 1 according to the manufacturer's description. Cells were subject to FACS sorting 48 h after transfection and single cell sorted based on dsRed expression into 96-well plates. Of the dsRed expressing positive clones, 3 were validated for CB1 and CB2 protein expression by radioligand binding analysis (methods discussed below).
Cells were grown to 90% confluence, rinsed twice with 1×PBS and stored at −80° C. until further use. To prepare crude cellular membrane fractions, dishes were removed from −80° C. and thawed at room temperature for 5 min. Once thawed, cells were lysed with ice-cold homogenization buffer (50 mM Tris, 1 mM EDTA, 3 mM MgCl2) and gently scraped from the dish. Total cell lysates from 3-5 dishes were collected on ice in 3 ml of ice-cold homogenization buffer. Cells were homogenized at 6,500 rpm (PRO Scientific, Oxford, Conn.) twice for 10 sec and centrifuged at 11,500 rpm for 20 min at 4° C. Supernatants were discarded and cell pellets were resuspended in homogenization buffer and triturated 10 times in ice-cold homogenization buffer. Crude cellular membrane homogenates were stored at −80° C. until further use. On the day of experiments, frozen homogenates were thawed at room temperature, gently triturated 10 times and subsequently dounce homogenized in a 7 ml glass tissue grinder (Wheaton Science Products, Millville, N.J.) by 5 strokes while on ice. […]

[2] = tested on: cardiac and motorneuron progenitors; assay: Toxic profile in progenitor cells; format: cell-based; conditions: compared with astrocytoma cell lines
Description: (§1) JWH-451 was tested for toxicity in cells expressing GPR124.

[3] = tested on: mouse neurons in primary culture; assay: Toxic profile in neurons in primary culture; format: cell-based
[4] = tested on: endothelial cell line bEnd.3; assay: Toxic profile in endothelial cell line; format: cell-based
Description: as §1

[5] = tested on: U251 flank tumors; assay: U251 flank tumors in nude mice, tumor growth; format: in vivo
Description: Nude mice that had been implanted with U251 flank tumors were treated with a daily regimen of JWH-451. This experiment was performed as follow: 10^6 U251 cells were implanted in the flanks of nude mice and the tumor was allowed to grow until it reached a size of 250 mm^3, at which point the mice were enrolled in daily treatment. Tumor growth was then measured and expressed as a function of initial tumor size.

T1 sequence (P47936 whole entry): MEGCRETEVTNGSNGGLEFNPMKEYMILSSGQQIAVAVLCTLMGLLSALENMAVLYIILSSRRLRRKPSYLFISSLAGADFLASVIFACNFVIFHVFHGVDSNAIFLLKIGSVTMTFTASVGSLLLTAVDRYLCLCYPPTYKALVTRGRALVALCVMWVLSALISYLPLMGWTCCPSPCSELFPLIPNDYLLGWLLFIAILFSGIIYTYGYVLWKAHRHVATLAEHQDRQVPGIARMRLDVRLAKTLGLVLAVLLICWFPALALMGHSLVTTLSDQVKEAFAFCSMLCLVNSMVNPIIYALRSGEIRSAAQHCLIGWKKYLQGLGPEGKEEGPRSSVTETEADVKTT

CCn1c(C)c(C(=O)c2ccc(C)c3ccccc23)c2ccccc21 [JWH-451, 1-Ethyl-2-methyl-3-(4-methyl-1-napthoyl)indole]
competition for [3H]-CP55940 binding at CB2 ([1]; FIG. 2): does not
lower affinity at CB2 receptors than WIN55212-2 ([1]; relative to WIN55212-2): 100 fold
toxic effect on cardiac and motorneuron progenitors [2]: much less toxic effect
viability of mouse neurons in primary culture [3]: did not affect the viability
viability of endothelial cell line bEnd.3 [4]: did not affect the viability
tumor growth in vivo ([5]; daily i.p. injection 15 mg/Kg, U251 flank tumors, nude mice): significantly reduced tumor growth
growth of U251 gliomas implanted in the flanks of nude mice ([5]; daily i.p. injections 5 mg/Kg (FIG. 5 legend), compared to controls): inhibits the growth
